Reference: patent publication US20120328717A1, “PHARMACEUTICAL KIT FOR TREATING NEURONAL DAMAGES” (priority 2011, published 2012)

What was measured:
[1] = tested on: middle cerebral artery occlusion (MCAO) animal models with ischemic strokes; test: Evaluation of brain edema (brain water content, wet-dry method) after MCAO; format: in vivo, Sprague-Dawley rats; conditions: Experiment 1; 48 hr after MCAO and reperfusion; 45 mg/kg MgSO4 i.v., 6 mg/kg nimesulide i.p.
Description: In the present experiments, middle cerebral artery occlusion (MCAO) known in the art was performed on SD rats to establish animal models with ischemic strokes by using occluding intra-luminal suture. The process for performing MCAO is briefly described as follows. A segment of 4-O nylon with blunted tip was inserted through the right internal carotid artery to occlude blood flow of middle cerebral artery (MCA). Laser Doppler flowmeter was used to monitor changes of cerebral blood flows in the MCA territory. […] Anesthetic time was limited to 20 minutes to minimize the influence of isoflurane on the outcome of MCAO. After recovery from anesthesia, rats without body asymmetry were regarded as failed MCAO models and excluded from further experiments. After MCAO was established for 90 min, intra-luminal occluder was removed to re-perfuse the brain. […] Herein, cerebral edema was determined by measuring the brain water content with the wet-dry method after MCAO was established for 48 hr. […] The difference of water content in ipsilateral and contralateral hemisphere (Δ% of water content) 48 hr after ischemia-reperfusion injury was evaluated with the wet-dry method.

[2] = tested on: middle cerebral artery occlusion (MCAO) animal models with ischemic strokes; test: Evaluation of infarct volume by TTC staining after MCAO and reperfusion; format: in vivo, Sprague-Dawley rats; conditions: Experiment 1; MCAO 90 min, reperfusion 72 hr; single dose: 45 mg/kg MgSO4 i.v. after MCAO or 6 mg/kg nimesulide i.p. before reperfusion
Description: 150 Sprague-Dawley rats (SD rats) weighing 220-250 gm were purchased from the Laboratory Animal Center of National Chung Kung University. In the present experiments, middle cerebral artery occlusion (MCAO) known in the art was performed on SD rats to establish animal models with ischemic strokes by using occluding intra-luminal suture. The process for performing MCAO is briefly described as follows. A segment of 4-O nylon with blunted tip was inserted through the right internal carotid artery to occlude blood flow of middle cerebral artery (MCA). Laser Doppler flowmeter was used to monitor changes of cerebral blood flows in the MCA territory. […] Anesthetic time was limited to 20 minutes to minimize the influence of isoflurane on the outcome of MCAO. After recovery from anesthesia, rats without body asymmetry were regarded as failed MCAO models and excluded from further experiments. After MCAO was established for 90 min, intra-luminal occluder was removed to re-perfuse the brain. […] When SD rats in each group were treated with MCAO for 90 min and reperfusion for 72 hr, infarct volumes were evaluated by TTC staining.

Structure (SMILES)	post-ischemia brain edema (Δ% of water content, ipsilateral vs contralateral hemisphere) compared to SVe group [1]	infarct volume compared to SVe group [2]
CS(=O)(=O)Nc1ccc([N+](=O)[O-])cc1Oc1ccccc1 [nimesulide, N-(4-Nitro-2-phenoxyphenyl)methane-sulfonamide]	cannot be Observed	no neuro-protective effect
O=S(=O)([O-])[O-].[Mg+2] [MgSO4]	cannot be Observed	a decrease of infarct volume was not observed
